The values that follow come from patent US8019550B2, “Drug discovery method” (Keddem Bioscience Ltd., priority 2002, dated 2011).

The test deals with T1, HIV-1 Protease (Human immunodeficiency virus type 1 group M subtype B, UniProt P04585).
T1 construct: effect on HIV-1 Protease
Put plainly: assay of selected molecules for activity (effect on HIV-1 Protease). In kind it is biochemical. The following applies: various concentrations (between 10 and 1000 micro-molar). How it is done: A set of molecules including the triangle measures were selected and physically assayed and shown to have the expected binding to HIV-1 Protease.
The triplets were used as a query input for a search in MDL's ACD-SC (available chemical directory for screening).
All of molecules were actually assayed and appeared to show activity (effect on HIV-1 Protease) at various concentrations (between 10 and 1000 micro-molar). […] Also molecules 34-39 were assayed, with no activity shown, as expected.

For the molecule `O=C1C2C(c3ccccc3)NC(c3ccccc3)C1C(c1ccccc1)OC2c1ccccc1` (centres unmarked) [compound 7], the “activity (effect on HIV-1 Protease)” value was “active”.
To `Cc1c(-c2ccccc2)c(=O)n(C)c2c1c(=O)n(-c1ccccc1)c(=O)n2-c1ccccc1` [compound 27] belongs “active”.
